According to paper PMC11813584, “An odorant-binding protein functions in fire ant social immunity interfacing with innate immunity” (Open Biology, 2025):
“Also recorded” adds a separate entry of the source. Where two headings read alike, the source gives them in different places.

Experiments:
SiFABP5 = SiFABP5 (Solenopsis invicta, UniProt Z9HHL8OTK9); assay: 1-NPN fluorescent binding / competition assay, purified SiFABP5; details: 1-NPN displacement; 2 μM 1-NPN, 2 μM protein; read-out: Kapp, competition, SiFABP5
Protocol: (§1) The ORFs corresponding to SiOBP15, SiApoLp-III and SiFABP5 were separately cloned into the pET28a expression vector as His-tag fusion proteins. The integrity of plasmid constructs was verified by sequencing and plasmids were transformed into the Escherichia coli BL21 strain for heterologous protein expression. Proteins were purified using a nickel affinity (NI) resin (Ni-Sepharose Cl-6B agarose) according to the manufacturer’s protocol. Purified proteins were analysed by SDS–PAGE for purity and further confirmed by western blotting using an anti-His tag antibody as the probe. […] Protein–protein interactions between SiOBP15 and SiApoLp-III and SiOBP15 and SiFABP5 were analysed using open surface plasmon resonance (SPR) by coupling the SiOBP15 protein (ligand) to a COOH chip until saturation. […] Binding kinetics were analysed by titration of the proteins. […] Dissociation constants were calculated using TraceDrawer (Ridgeview Instruments ab, Sweden) with a one-to-one interaction model.
(§2) N-phenyl-1-naphthylamine (1-NPN) was used as a probe for competition (displacement) based fluorescent binding assays as previously described. Samples were analysed using a Hitachi F-2000 fluorescence spectrophotometer at an excitation wavelength of 350 nm and an emission wavelength of 420 nm. […]

SiOBP15 = SiOBP15 (Solenopsis invicta, UniProt F1DI94); assay: 1-NPN fluorescent binding / competition (displacement) assay, purified SiOBP15; details: for binding to SiOBP15 (in words): 1-NPN competition, SiOBP15 alone
Protocol: (§3) The ORFs corresponding to SiOBP15, SiApoLp-III and SiFABP5 were separately cloned into the pET28a expression vector as His-tag fusion proteins. The integrity of plasmid constructs was verified by sequencing and plasmids were transformed into the Escherichia coli BL21 strain for heterologous protein expression. Proteins were purified using a nickel affinity (NI) resin (Ni-Sepharose Cl-6B agarose) according to the manufacturer’s protocol. Purified proteins were analysed by SDS–PAGE for purity and further confirmed by western blotting using an anti-His tag antibody as the probe. His-tags were removed by protease cleavage, and after determining final protein concentrations, aliquots of the purified protein samples were maintained at −80°C. Protein–protein interactions between SiOBP15 and SiApoLp-III and SiOBP15 and SiFABP5 were analysed using open surface plasmon resonance (SPR) by coupling the SiOBP15 protein (ligand) to a COOH chip until saturation. Purified SiFABP5 and SiApoLp-III proteins (analytes) were then added to analyse the kinetics of the interaction between these proteins. Binding kinetics were analysed by titration of the proteins. All experiments were performed three times with the same ‘chip’, and the entire experiment was repeated with three independent COOH-SiOBP15 chip. Dissociation constants were calculated using TraceDrawer (Ridgeview Instruments ab, Sweden) with a one-to-one interaction model.
(§4) N-phenyl-1-naphthylamine (1-NPN) was used as a probe for competition (displacement) based fluorescent binding assays as previously described. Samples were analysed using a Hitachi F-2000 fluorescence spectrophotometer at an excitation wavelength of 350 nm and an emission wavelength of 420 nm. The binding constant of the purified proteins to 1-NPN was determined over a substrate concentration range from 2 to 20 μM using 1.0 μM protein in 10 mM HEPES, 100 mM NaCl buffer, pH 7.5. Subsequent competition/displacement assays using test ligands were performed using a concentration of 2 μM 1-NPN, 2 μM protein and 2−40 μM test ligand. Dissociation constants (Kd) for 1-NPN were calculated by Scatchard plot analyses using GraphPad Prism 8 Software (GraphPad, La Jolla, CA, USA). The dissociation constants of test ligands (Kapp) in 1-NPN competition assays were calculated using the concentration of test ligand required to displace 50% of the 1-NPN signal (IC50) values using the following equation: Kapp = (IC50)/(1 + (1 − NPN)/K1 – NPN).

SiOBP15 + SiFABP5 = SiOBP15 + SiFABP5 (Solenopsis invicta, UniProt F1DI94+Z9HHL8OTK9); assay: 1-NPN fluorescent binding / competition assay, SiOBP15 co-incubated with SiFABP5; details: 1-NPN displacement; co-incubation of SiOBP15 with SiFABP5; read-out: Kapp, competition, SiOBP15 + SiFABP5
Protocol: as §1, §2

S. invicta workers = assay: Dismemberment behavioural assay; type: in vivo, Solenopsis invicta; details: for dismemberment behaviour towards freeze-killed ants treated with the compound: healthy / untreated and GFP-RNAi workers, compared to freeze-killed control ants; for effect on behaviour: corpse-dismemberment of freeze-killed conspecifics treated with the chemical; for corpse dismemberment, RNAi targeting SiOBP15 + SiApoLp-III: dual RNAi; for corpse dismemberment, RNAi targeting SiOBP15 + SiApoLp-III / corpse dismemberment, RNAi targeting SiApoLp-III / corpse dismemberment, RNAi targeting SiFABP5 / corpse dismemberment, RNAi targeting SiOBP15 / corpse dismemberment, GFP RNAi (control) workers: freeze-killed corpses + chemical; for corpse dismemberment, RNAi targeting SiOBP15 + SiApoLp-III / corpse dismemberment, RNAi targeting SiApoLp-III / corpse dismemberment, RNAi targeting SiFABP5 / corpse dismemberment, RNAi targeting SiOBP15: compared to freeze-killed workers treated with the same chemical; for corpse dismemberment, GFP RNAi (control) workers: compared to freeze-killed, no additions
Protocol: Fresh corpses of workers killed by either rapid immersion in liquid nitrogen were collected and maintained at −80°C until use. Infection was performed by immersing workers for 5 s in 1 × 10^8 suspensions of fungal conidia. Infected workers were kept in isolated boxes until mortality (3–4 days) and were then used immediately for dismemberment assays. Each technical replicate of a dismemberment assay used five workers selected from different treatment groups (i.e. killed by freezing, killed by B. bassiana or subjected to another treatment as indicated). Of the five ‘killed’ workers, […] near the edge of the container in a ‘+’ pattern of a plastic container (9 cm diameter) and one in the centre. To each container was added 15 healthy workers or 15 workers treated as described below (e.g. RNAi treated). Containers contained an Eppendorf tube with a sterile solution of 5% sucrose. Corpse-dismemberment behaviour was assessed every 12 h for three consecutive days, and corpse limbs or other parts that were dismembered were counted. The corpse-dismemberment percentage was calculated by dividing the total number of dismembered parts (5 corpses × 10 body parts/each cage/3 days). Each experiment contained three technical replicates, and the entire experiment was repeated at least three times.
The specific dsRNA primers used in this study were synthesized using an in vitro transcription T7 kit (TAKARA, Dalian, China; electronic supplementary material, table S1). dsRNA concentrations were measured using a NanoVue Plus spectrophotometer (GE Healthcare Life Sciences, Little Chalfont, UK). In total, 50 nl of dsRNA of either the target genes or DsRNA-GFP (control) at indicated concentrations (up to 3000 ng μl^−1) were injected into each worker. Dismemberment assays were performed as above with three technical replicates, and each experiment was repeated at least three times using three different batches of ants. RNAi efficiencies was analysed by qRT-PCR.

SiOBP15 + SiApoLp III = SiOBP15 + SiApoLp III (Solenopsis invicta, UniProt F1DI94); assay: 1-NPN fluorescent binding / competition assay, SiOBP15 co-incubated with SiApoLp-III
Protocol: as §3, §4

[1] = read-out: Kapp, competition, SiOBP15 + SiApoLp III; 1-NPN displacement; co-incubation of SiOBP15 with SiApoLp-III
[2] = 1-NPN displacement, 2 μM 1-NPN, 2 μM protein, 2-40 μM test ligand, read-out: Kapp, competition, SiOBP15
[3] = 1-NPN displacement; co-incubation of SiOBP15 with SiApoLp-III; read-out: Kapp, competition, SiOBP15 + SiApoLp III

Sequence of SiOBP15 (F1DI94 entry or part of it): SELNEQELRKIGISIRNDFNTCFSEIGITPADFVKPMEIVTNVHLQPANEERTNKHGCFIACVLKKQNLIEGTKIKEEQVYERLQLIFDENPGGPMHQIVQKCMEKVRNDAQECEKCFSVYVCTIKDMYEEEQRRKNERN
Sequence of SiOBP15 + SiApoLp III (F1DI94 entry or part of it): as above
Sequence of SiOBP15 + SiApoLp III (Q6B972 entry or part of it, further chain): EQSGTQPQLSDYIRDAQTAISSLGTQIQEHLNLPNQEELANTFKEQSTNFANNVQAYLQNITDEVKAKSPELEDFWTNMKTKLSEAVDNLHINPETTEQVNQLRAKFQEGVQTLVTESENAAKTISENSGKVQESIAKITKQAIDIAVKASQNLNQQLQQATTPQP
Sequence of SiOBP15 + SiFABP5 (F1DI94 23-162 limits assumed): as the sequence (F1DI94 entry or part of it) above
Sequence of SiOBP15 + SiFABP5 (Z9HHL8OTK9 1-133): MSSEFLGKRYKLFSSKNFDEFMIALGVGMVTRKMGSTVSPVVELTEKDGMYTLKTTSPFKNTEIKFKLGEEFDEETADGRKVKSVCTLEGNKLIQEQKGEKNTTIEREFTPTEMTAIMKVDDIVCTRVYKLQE
Sequence of SiFABP5 (Z9HHL8OTK9 1-133): as above

Molecule	binding to SiOBP15 (in words) (SiOBP15)	dismemberment behaviour towards freeze-killed ants treated with the compound (S. invicta workers)	Ki (SiOBP15; [2]) [µM]	binding to SiOBP15 incubated with SiApoLp-III (in words) (SiOBP15 + SiApoLp III; 1-NPN competition, complex)	Ki (SiOBP15 + SiApoLp III; [3]) [µM]	corpse dismemberment, RNAi targeting SiOBP15 + SiApoLp-III (S. invicta workers)	corpse dismemberment, RNAi targeting SiApoLp-III (S. invicta workers)	corpse dismemberment, RNAi targeting SiFABP5 (S. invicta workers)	corpse dismemberment, RNAi targeting SiOBP15 (S. invicta workers)	corpse dismemberment, GFP RNAi (control) workers (S. invicta workers)	further results
3-octenol	able to bind	–	–	–	–	–	–	–	–	–	Ki (SiFABP5): 15.7 µM; Ki (SiOBP15 + SiFABP5): 12.6 µM
CC1CCOC1=O (stereo not shown) [3-methyltetrahydro-2-furanone]	–	No significant effects	–	–	–	–	–	–	–	–	Ki (SiOBP15): 16 µM; Ki (SiOBP15 + SiApoLp III; [1]): 57.2 µM
CC(=O)C(C)O (stereo not shown) [acetoin]	binds	No significant effects	26.5	limited binding	83.3	–	–	–	–	–	–
CCCCCCCC/C=C\CCCCCCCC(=O)O [oleic acid]	able to bind	significant decrease; also recorded: reduced dismemberment behaviour; also recorded: inhibit this behaviour	–	did not show binding	–	no change^d	no change^d	no change^d	no change^d	decreased^a	effect on behaviour (S. invicta workers): inhibits dismemberment; Ki (SiOBP15): 15.5 µM; Ki (SiOBP15 + SiApoLp III; [1]): > 500 µM
CCCCCCCCCCCCCCCCCCCCCC(=O)O [behenic acid]	–	significant increase; also recorded: induced dismemberment behaviour; also recorded: induces corpse-dismemberment	–	–	–	decreased^b	decreased^b	no change^b	slight decrease^b	increased^a	effect on behaviour (S. invicta workers): induces dismemberment; Ki (SiOBP15): 14 µM; Ki (SiOBP15 + SiApoLp III; [1]): 19.3 µM
c1ccc(Nc2cccc3ccccc23)cc1 [1-NPN, N-phenyl-1-naphthylamine, reference compound]	–	–	–	–	–	–	–	–	–	–	Kd (SiOBP15; Kd of 1-NPN to SiOBP15 (printed in figure 2C), SiOBP15+NPN, unit inferred): 16.9 µM; Kd (SiOBP15; Kd of 1-NPN to SiOBP15, Scatchard analysis, 1.0 μM protein, 2 to 20 μM 1-NPN): 16.9 µM; Kd (SiOBP15 + SiApoLp III; read-out: dissociation constant of 1-NPN to SiOBP15 + SiApoLp-III; co-incubation; modelled to single 1-NPN binding sites): 18.2 µM
CCCCC=CCCO [3-octenol]	–	–	15.2	–	> 500	–	–	–	–	–	–
CCCCCCCCCCC/C=C/CCCCC(=O)O [trans-6-octadecenoic acid]	–	No significant effects	–	–	–	–	–	–	–	–	–
CCCCCCCC/C=C/CCCCCCCCCC(=O)O [trans-11-eicosenoic acid]	No binding	No significant effects; also recorded: did not alter dismemberment behaviour	> 500	–	> 500	no change^e	no change^e	no change^e	no change^e	no change^a	–
CCCCC/C=C\C/C=C\CCCCCCCC(=O)O [linoleic acid, cis,cis-9,12-linoleic acid]	able to bind	significantly reduced	25.8	did not show binding	> 500	increased^c	no change^c	increased^c	increased^c	decreased^a	effect on behaviour (S. invicta workers): inhibits dismemberment; dismemberment behaviour towards freeze-killed ants treated with the compound (S. invicta workers; listed as cis, cis-9,12-linoleic acid): inhibit this behaviour; dismemberment behaviour towards freeze-killed ants treated with the compound (S. invicta workers; listed as cis,cis-9,12-linoleic acid): significant decrease
CC(=O)C(C)=O [2,3 butanedione]	binds	No significant effects	–	limited binding	70.9	–	–	–	–	–	–
C=CC(=C)CCC=C(C)C [myrcene]	–	No significant effects	–	–	–	–	–	–	–	–	–
